Test results taken from PMC10101059, “Rational Design of Stapled Antimicrobial Peptides to Enhance Stability and In Vivo Potency against Polymicrobial Sepsis” (Microbiology Spectrum, 2023).
≈ marks a conversion by molar mass, not a printed value. Bridge positions count the residues as written; N and C are the ends. Square brackets hold non-standard residues; d marks the D form. Peptide text beside a SMILES is read from it. R5 = C=CCCC[C@@](C)(N)C(=O)O

Legend:
Assay type in all cases: cell-based
human red blood cells = tested on: human red blood cells
Procedure: The hemolytic assay was performed after approval from the institutional ethics committee (Academia Sinica Institutional Review Board [IRB]; ID no. AS-IRB02-111075). Blood was collected from healthy humans, and 50 μL of a 2% blood cell suspension in normal saline was treated with an equal volume of peptide at different concentrations. The mixture was then incubated at 37 ± 2°C for 1 h. Next, the cell suspension was centrifuged at 1,000 × g for 10 min. Percent hemolysis was estimated by the absorbance of treated and control supernatant samples at 540 nm ([23], [44]).

Staphylococcus aureus = tested on: Staphylococcus aureus
Procedure: (§1) The antimicrobial assay was performed according to a modified National Committee for Clinical Laboratory Standards (NCCLS) protocol ([41], [42]). Briefly, 5 × 10^5 CFU/mL bacterial cells were treated with various peptide concentrations and incubated at 37 ± 2°C for 16 to 20 h. The lowest concentration with clear wells was recorded as the MIC for each test molecule. The clear wells were further plated in Mueller-Hinton agar (MHA) plates, followed by incubation overnight at 37 ± 2°C. After plating, the lowest concentration at which no growth was observed was recorded as the MBC. For the serum sensitivity assay, the antimicrobial activity of the peptides was tested in medium containing 50% human serum ([43], [44]).

Acinetobacter baumannii = test: microbe, parasite or virus in culture; settings: for MBC: read-out: MBC; for MIC: read-out: MIC
Procedure: as §1, with “[44]). The antimicrobial assay was performed in the presence of physiological ions and glucose. The test media were supplemented with MgCl2 (1 mM), CaCl2 (2 mM), NaCl (150 mM), KCl (4.5 mM), NH4Cl (6 μM) ([45], [46]), or glucose (0.2%) ([47]), followed by routine antimicrobial assay as described previously. For the pH sensitivity assay, the antimicrobial assay was performed in media adjusted to pH values ranging from 4 to 12. To estimate the effects of temperature on antimicrobial activity, the peptide was incubated for 1 h at temperatures ranging from 40 to 100°C ([48]), followed by the antimicrobial assay as described above.” for “[44]).”

| Compound | 15% hemolysis concn (human red blood cells) [µM] | MBC (Staphylococcus aureus) [µM] | MIC (Staphylococcus aureus) [µM] | MBC (Acinetobacter baumannii) [µM] | MIC (Acinetobacter baumannii) [µM] |
| --- | --- | --- | --- | --- | --- |
| CC[C@H](C)[C@H](NC(=O)[C@@H](NC(=O)[C@@H](NC(=O)[C@@H](N)Cc1ccccc1)[C@@H](C)CC)[C@@H](C)CC)C(=O)N[C@@H](CCCCN)C(=O)N[C@@H](CCCCN)C(=O)N[C@@H](CO)C(=O)NCC(=O)NCC(=O)N[C@@H](CC(C)C)C(=O)N[C@]1(C)CCCC=CCCC[C@](C)(C(=O)NCC(=O)N[C@@H](C)C(=O)N[C@]2(C)CCCC=CCCC[C@](C)(C(=O)N[C@H](C(=O)N[C@@H](CCCCN)C(=O)N[C@@H](CCCCN)C(=O)O)[C@@H](C)CC)NC(=O)[C@H](CCCCN)NC(=O)[C@H](CCCCN)NC(=O)[C@H](CCCCN)NC2=O)NC(=O)[C@H](CCCCN)NC(=O)[C@H](CCCCN)NC(=O)[C@H](CCCCN)NC1=O [TP4-2] (H-FIIIKKSGGL[R5]KKK[R5]GA[R5]KKK[R5]IKK-OH; staple 11-15, 18-22; N-terminus and C-terminus assumed) | >100 | >25 | >25 | 12.5 (≈ 35.5 µg/mL) | 12.5 (≈ 35.5 µg/mL) |
| CC[C@H](C)[C@H](NC(=O)[C@@H](NC(=O)[C@@H](N)Cc1ccccc1)[C@@H](C)CC)C(=O)N[C@]1(C)CCCC=CCCC[C@](C)(C(=O)NCC(=O)N[C@@H](CC(C)C)C(=O)N[C@]2(C)CCCC=CCCC[C@](C)(C(=O)NCC(=O)N[C@@H](C)C(=O)N[C@]3(C)CCCC=CCCC[C@](C)(C(=O)N[C@H](C(=O)N[C@@H](CCCCN)C(=O)N[C@@H](CCCCN)C(=O)O)[C@@H](C)CC)NC(=O)[C@H](CCCCN)NC(=O)[C@H](CCCCN)NC(=O)[C@H](CCCCN)NC3=O)NC(=O)[C@H](CCCCN)NC(=O)[C@H](CCCCN)NC(=O)[C@H](CCCCN)NC2=O)NC(=O)[C@H](CO)NC(=O)[C@H](CCCCN)NC(=O)[C@H](CCCCN)NC1=O [TP4-4] (H-FII[R5]KKS[R5]GL[R5]KKK[R5]GA[R5]KKK[R5]IKK-OH; staple 4-8, 11-15, 18-22; N-terminus and C-terminus assumed) | >100 | >25 | >25 | 12.5 (≈ 36.5 µg/mL) | 12.5 (≈ 36.5 µg/mL) |
